Where “and” joins values, the source holds several entries; their conditions need not be identical. Equal values may be shown once.
Tests used:
Experiment in all cases: 144-hour CellTiter-Glo 2.0 proliferation assay
Format in all cases: cell-based
AGS = settings: Homo sapiens; AGS gastric; monotherapy; read-out: mono GI50
Experimental: (§1) Combination profiling was carried out in a panel of cancer cell lines utilising Horizon Discovery's High Throughput Screening platform.
(§2) Cell lines that have been preserved in liquid nitrogen are thawed and expanded in growth media (see Table 1). Once cells have reached expected doubling times, screening begins. Cells are seeded in 25 μl of growth media in black 384-well tissue culture treated plates (seeding density as noted in Table 11).
(§3) Cells are equilibrated in assay plates via centrifugation and placed at 37° C. 5% CO2 for twenty-four hours before treatment.
(§4) Compounds are transferred to assay plates using and Echo acoustic liquid handling system. 25 nl of each compound was added at the appropriate concentration for all combination dose points. Therefore, final assay volume would be […]. Assay plates are incubated with compound for 6 days and are then analysed using CellTiter-Glo 2.0. All data points are collected via automated processes and are subject to quality control and analysed.
(§5) Growth Inhibition (GI) is reported as a measure of cell growth. The GI percentages are calculated by applying the following test and equation: […]
(§6) where T is the signal measure for a test article, V is the untreated/vehicle-treated control measure, and Vo is the untreated/vehicle control measure at time zero (also colloquially referred as T0 plates). This formula is derived from the Growth Inhibition calculation used in the National Cancer Institute's NCI-60 high throughput screen. For the purposes of this report, all data analysis was performed in Growth Inhibition (except where noted).

A2780 = settings: Homo sapiens; A2780 ovarian; monotherapy; read-out: mono GI50
Experimental: as §1, §2, §3, §4, §5, §6

PA-1 = settings: Homo sapiens; PA-1 ovarian; monotherapy; read-out: mono GI50
Experimental: as §1, §2, §3, §4, §5, §6

SNU-324 = SNU-324 pancreatic; monotherapy; read-out: mono GI50
Experimental: as §1, §2, §3, §4, §5, §6

JHOM-1 = JHOM-1 ovarian; monotherapy; read-out: mono GI50
Experimental: as §1, §2, §3, §4, §5, §6

HCT-116 = settings: Homo sapiens; HCT-116 colorectal; monotherapy; read-out: mono GI50
Experimental: as §1, §2, §3, §4, §5, §6

IM-95 = settings: Homo sapiens, IM95; IM-95 gastric; monotherapy; read-out: mono GI50
Experimental: as §1, §2, §3, §4, §5, §6

C[C@@H]1COCCN1c1cc(C2([S@](C)(=N)=O)CC2)nc(-c2ccnc3[nH]ccc23)n1 [AZD6738, 4-{4-[(3R)-3-Methylmorpholin-4-yl]-6-[1-((R)—S-methylsulfonimidoyl)cyclopropyl]pyrimidin-2-yl}-1H-pyrrolo[2,3-b]-pyridine]
GI50 (AGS): 1210 nM | GI50 (A2780): 667 nM | GI50 (PA-1): 1220 nM | GI50 (SNU-324): 476 nM and 534 nM | GI50 (JHOM-1): 939 nM | GI50 (HCT-116): 687 nM | GI50 (IM-95): 250 nM

— US20250352539A1, “COMBINATION THERAPY FOR TREATING CANCER” (AstraZeneca AB, priority 2022, published 2025)
